As a reminder, the IC50 is the concentration at which inhibition is half-maximal. A low value points to inhibition by little substance.

The text below walks through data of patent publication US20220047617A1, “Nucleic acid nanocarrier drug, preparation method, pharmaceutical composition and use thereof” (BAI YAO ZHI DA (BEIJING) NANOBIO TECHNOLOGY CO., LTD., priority 2018, published 2022).

Series [1] deals with U87MG cells. Put plainly: Cytotoxicity in U87MG cells (CellTiter-Glo), Embodiment 8. It is filed as cell-based. The method, then:
Cytotoxicity Research of RNAh-Bio-670-Paclitaxel Nanoparticles in U87MG Cells
1) Cell Culturing and Plating
U87MG cells are cultured at 37 DEG C. and 5% CO2 in the EMEM basal medium in which 10% FBS and 1% PS are respectively added. The cell density used in the experiment is above 80%. The cells are collected, and centrifuged at 1000 rpm for 4 minutes, the medium is resuspended, the cell concentration is adjusted, and it is added to the 96-well plate in a volume of 5000 cells per 90 μL, and each group has 4 replicate wells.
2) Gradient Drug Concentration Preparation and Administration […]
Medium (untreated) control: only cells without compound treatment
Blank control: without cells, used for instrument zero calibration
3) Cell Culture after Administration
4) Cells Treated by Detection Kit
The well plate is brought to a room temperature in advance and stands for 30 minutes. 100 μL of a CellTiter-Glo® reagent is added to each well of the well plate and mixed for 2 minutes on a shaker to promote cell lysis. The Perkin Elmer Envision 2104 Multilabel Reader is used to read values and the values are recorded.
5) Experiment Data Acquisition and Processing
The acquired experiment data is analyzed and processed by using excel software, and GraphPad Prism 5 software is used for curve fitting analysis.
For orientation: Cellular ATP, detected with luciferase, serves as a proxy for viable cell number.

The subject of series [2] is SKOV3 cells. Put plainly: Cytotoxicity in SKOV3 cells (CellTiter 96 AQueous One Solution), Embodiment 9. The settings on record: Homo sapiens, SK-OV-3; SKOV3, 96 hours. It is filed as cell-based.
Protocol: 2) adjusting the cell density to 2.22×10^4/mL with a growth medium;
3) planting 90 μL/well of cell suspension into the 96-well plate, herein the number of cells per well in the plate is 2000;
4) placing the planted cell plate in the incubator at 37 DEG C. and incubating overnight;
5) performing 3.16-fold gradient dilution on the compound at 9 concentration points;
7) placing the cell culture plate in the incubator and continuously incubating for 96 hours;
8) placing the CellTiter 96® AQueous One Solution reagent at the room temperature and thawing for 90 minutes or thawing in a water bath at 37 DEG C., and placing at the room temperature and equilibrating for 30 minutes;
9) adding 20 μL/well of the CellTiter 96® AQueous One Solution reagent to the cell culture plate;
10) placing the cell culture plate in the incubator at 37 DEG C. and continuously incubating for 3 hours;
11) using a microplate reader to read a OD490 value of each well in the cell plate; and 12) data processing and analysis.
GraphPad Prism 5.0 software is used to process data graphically. In order to calculate the IC50, “S”-shaped nonlinear regression analysis is performed on the data to match an appropriate dosage-effect curve. A calculation formula of the survival rate is as follows, the IC50 may be automatically calculated in GraphPad Prism 5.0. […]
Series [3] can be described thus: TM value detection by solubility curve method (SYBR Green I). Format: physicochemical. The settings on record: extension fragment deformation+core short-sequence RNA nanoparticles; temperature at ½ RFUmax in 20 to 90 DEG C. taken as Tm. The method, then:
A solubility curve method is used to detect TM values of the 7 groups of the extension fragment deformation+core short-sequence RNA nanoparticles, and the samples are consistent with the potential samples.
(1) After the sample is diluted with ultrapure water, 5 μg of the diluted sample is mixed with 2 μL of SYBR Green I dye (diluted by 1:200), a final volume is 20 μL, and the dilution concentration is as follows:
(2) It is incubated for 30 min in the dark at a room temperature; and
(3) On-machine detection is performed, a program is set to start at 20 DEG C., the temperature rises per second from 0.1 DEG C. to 95 DEG C., and reading is performed every 5 s.
Due to the particularity of the RNA samples, a temperature corresponding to ½ RFUmax in a range of 20 to 90 DEG C. is used as a sample Tm value in this test.
A solubility curve method is used to detect TM values of the 7 groups of the extension fragment deformation+core short-sequence DNA nanoparticles, and the samples are consistent with the potential samples.

The nature of series [4]: Particle size measurement (DLS hydrodynamic size). It is filed as physicochemical. From the text: (3) Particle Size Measurement
1. Preparing a potential sample (conventional-sequence DNA self-assembly product D-7) and putting into a sample pool, opening a sample pool cover of an instrument, and placing the instrument;
2. opening software, and clicking a menu, so a manual measurement parameter setting dialog box appears;
3. setting a software detection parameter; and then
4. clicking Ok to complete the settings, when a measurement dialog box appears, clicking Start to start, a DLS measurement value result of a hydrodynamic size of the self-assembly product D-7 is shown below in Table 40:
(3) Particle size measurement
(2) opening software, and clicking a menu, so a manual measurement parameter setting dialog box appears;
(3) setting a software detection parameter; and then

Take `CC(=O)O[C@H]1C(=O)[C@@]2(C)[C@H]([C@H](OC(=O)c3ccccc3)[C@]3(O)C[C@H](OC(=O)[C@H](O)[C@@H](NC(=O)c4ccccc4)c4ccccc4)C(C)=C1C3(C)C)[C@]1(OC(C)=O)CO[C@@H]1C[C@@H]2O` [Paclitaxel, paclitaxel]: in series [1] (drug concentration is 10 μM), the “inhibition rates of the drugs to the cells” value is 23.77%. For the same molecule, in series [1] (treatment time 72 h, 200 nM of each sample per well (method)), the “cell survival rate (%)” value came out at 56.74%. The molecule also gave an IC50 in series [2] of less than 1 nM.

B1: R-20: extension fragment deformation+core short-sequence RNA nanoparticles, strands SEQ ID NO: 135-137, a-strand 3′-biotin, 2′F (nucleic acid)
chain 1: GCGGCGAGCGGCGACGAGCGUUGCGGCCGGAGGCCGG
chain 2: CCGGCCUCCGGCCGCUUCGCCGCCAGCCGCC
chain 3: GGCGGCAGGCGGCCAUAGCCGUCGCCGCUCGCCGC
modifications: RNA nanoparticle strands, 2'-fluoro modified, a-strand 3'-biotin, positions not given here
B1 yielded a TM value in series [3] of 59.5 °C. Further, the “Mean particle size (nm)” value in series [4] was determined as 7.110 nm.
